Test results as given in the NIST ThermoML archive (doi:10.1021/acs.jced.6b00430).
Numbers after ± are expanded uncertainties.

Assay: xn = mol fraction of the nth substance listed
Conditions: 100 kPa, Liquid; for electrical conductivity: Alternating current cell with electrodes; for viscosity: Concentric cylinders viscometry; for mass density: Vibrating tube method

O=[PH](O)O [phosphonic acid] + CN(C)C=O
Conditions | electrical conductivity [S/m] | mass density [kg/m3] | viscosity [mPa·s]
338.15 K, x1 = 0.0911 | – | 954.96 ± 10 | –
338.15 K, x1 = 0.1365 | – | 979.11 ± 10 | –
338.15 K, x1 = 0.1798 | – | 1003.68 ± 10 | –
338.15 K, x1 = 0.1829 | – | 1004.95 ± 10 | –
338.15 K, x1 = 0.1973 | – | – | 1.67 ± 0.1
338.15 K, x1 = 0.2293 | – | 1032.82 ± 10 | –
338.15 K, x1 = 0.2507 | – | – | 2.45 ± 0.15
338.15 K, x1 = 0.291 | – | 1068.59 ± 10 | –
338.15 K, x1 = 0.2984 | – | – | 3.49 ± 0.21
338.15 K, x1 = 0.3115 | – | – | 3.66 ± 0.22
338.15 K, x1 = 0.3298 | – | 1093.82 ± 10 | –
338.15 K, x1 = 0.3442 | – | 1102.06 ± 10 | –
338.15 K, x1 = 0.3491 | – | – | 5.02 ± 0.3
338.15 K, x1 = 0.3712 | – | 1119.72 ± 10 | –
338.15 K, x1 = 0.3937 | – | 1133.99 ± 10 | –
338.15 K, x1 = 0.3968 | – | – | 7 ± 0.42
338.15 K, x1 = 0.3988 | – | – | 6.98 ± 0.42
338.15 K, x1 = 0.4107 | – | 1155.74 ± 10 | 7.75 ± 0.47
338.15 K, x1 = 0.421 | – | 1160.23 ± 10 | –
338.15 K, x1 = 0.4479 | – | 1172.2 ± 10 | 9.91 ± 0.6
338.15 K, x1 = 0.4707 | – | 1187.28 ± 10 | –
338.15 K, x1 = 0.493 | – | 1201.35 ± 10 | –
338.15 K, x1 = 0.4968 | – | – | 12.7 ± 0.8
338.15 K, x1 = 0.5074 | – | 1210.34 ± 10 | 11.6 ± 0.7
338.15 K, x1 = 0.5196 | – | 1220.86 ± 10 | –
338.15 K, x1 = 0.5429 | – | 1236.41 ± 10 | –
338.15 K, x1 = 0.5503 | – | – | 17.2 ± 1
338.15 K, x1 = 0.5724 | – | 1258.27 ± 10 | –
338.15 K, x1 = 0.5761 | – | – | 18.7 ± 1.1
338.15 K, x1 = 0.5925 | – | 1272.25 ± 10 | –
338.15 K, x1 = 0.5993 | – | – | 19.2 ± 1.2
338.15 K, x1 = 0.6245 | – | 1295.1 ± 10 | –
338.15 K, x1 = 0.6261 | – | – | 22.6 ± 1.4
338.15 K, x1 = 0.6316 | – | – | 22.3 ± 1.3
338.15 K, x1 = 0.6478 | – | – | 23.8 ± 1.4
338.15 K, x1 = 0.6554 | 1.06 ± 0.11 | 1322.46 ± 10 | 23.6 ± 1.4
338.15 K, x1 = 0.6753 | – | 1331.43 ± 10 | –
338.15 K, x1 = 0.682 | 1.39 ± 0.14 | – | 25.2 ± 1.5
338.15 K, x1 = 0.6923 | – | 1345.85 ± 10 | –
338.15 K, x1 = 0.7142 | – | 1374.38 ± 10 | 27 ± 1.6
338.15 K, x1 = 0.725 | – | 1368.62 ± 10 | –
338.15 K, x1 = 0.7592 | – | 1400.4 ± 10 | –
338.15 K, x1 = 0.7694 | 2.29 ± 0.23 | 1411.68 ± 10 | 28.6 ± 1.7
338.15 K, x1 = 0.7832 | 2.42 ± 0.24 | – | 29.1 ± 1.8
338.15 K, x1 = 0.7845 | – | 1422.74 ± 10 | –
348.15 K, x1 = 0.0911 | – | 945.43 ± 10 | –
348.15 K, x1 = 0.1365 | – | 969.77 ± 10 | –
348.15 K, x1 = 0.1798 | – | 994.4 ± 10 | –
348.15 K, x1 = 0.1829 | – | 995.9 ± 10 | –
348.15 K, x1 = 0.2293 | – | 1023.58 ± 10 | –
348.15 K, x1 = 0.291 | – | 1059.58 ± 10 | –
348.15 K, x1 = 0.3298 | – | 1084.14 ± 10 | –
348.15 K, x1 = 0.3442 | – | 1093.18 ± 10 | –
348.15 K, x1 = 0.3712 | – | 1110.71 ± 10 | –
348.15 K, x1 = 0.3937 | – | 1125.23 ± 10 | –
348.15 K, x1 = 0.4107 | – | 1147 ± 10 | –
348.15 K, x1 = 0.421 | – | 1150.66 ± 10 | –
348.15 K, x1 = 0.4479 | – | 1158.49 ± 10 | –
348.15 K, x1 = 0.4707 | – | 1177.52 ± 10 | –
348.15 K, x1 = 0.493 | – | 1192.77 ± 10 | –
348.15 K, x1 = 0.5074 | – | 1201.8 ± 10 | –
348.15 K, x1 = 0.5196 | – | 1210.75 ± 10 | –
348.15 K, x1 = 0.5429 | – | 1227.92 ± 10 | –
348.15 K, x1 = 0.5724 | – | 1254.23 ± 10 | –
348.15 K, x1 = 0.5925 | – | 1263.87 ± 10 | –
348.15 K, x1 = 0.6245 | – | 1286.78 ± 10 | –
348.15 K, x1 = 0.6554 | – | 1310.01 ± 10 | –
348.15 K, x1 = 0.6753 | – | 1324.98 ± 10 | –
348.15 K, x1 = 0.6923 | – | 1337.69 ± 10 | –
348.15 K, x1 = 0.7142 | – | 1366.2 ± 10 | –
348.15 K, x1 = 0.725 | – | 1373 ± 10 | –
348.15 K, x1 = 0.7592 | – | 1394.6 ± 10 | –
348.15 K, x1 = 0.7694 | – | 1401.02 ± 10 | –
348.15 K, x1 = 0.7845 | – | 1410.65 ± 10 | –
